The first assay relates to esterase E011. As to the kind of experiment: Initial screening of ThermoGen esterases toward esters 1-31 (pH indicator), specific activity. The class given is biochemical. Conditions: 1 mM substrate, pH 7.2, 7 vol % acetonitrile, 25° C. The method, then: (§1) Initial screening measures the initial rate of hydrolysis of different esters. The rate of reaction was measured by monitoring the release of protons using a pH indicator, 4-nitrophenol. In this assay, the yellow color of the phenoxide disappears as the reaction proceeds. The amount of ester hydrolyzed can be measured quantitatively, as is known in the art.
On to `CC(C)(C)CC(=O)Oc1ccc2nc3ccc(=O)cc-3oc2c1` [Substrate 10, Resorufin t-butylacetate (resorufin 3,3-dimethylbutyrate), reference compound], for which the “Specific activity, esterase E011” value is 2.7 mmol ester hydrolyzed/min/mg protein.
`C=COC(=O)C(C)(C)C` [Substrate 11]: the “Specific activity, esterase E011” value is 0.80 mmol ester hydrolyzed/min/mg protein.
In the case of `CCCC(=O)OCC` [Substrate 13], the “Specific activity, esterase E011” value is on record as 0.71 mmol ester hydrolyzed/min/mg protein.
For `CCCCOC(C)=O` [Substrate 25], the “Specific activity, esterase E011” value is 0.5 mmol ester hydrolyzed/min/mg protein.
Still for that read-out and setting: the result for `C=C(C)OC(C)=O` [Substrate 27] reads 45 mmol ester hydrolyzed/min/mg protein; that for `CCC(C)OC(C)=O` (centres unmarked) [Substrate 28], 0.19 mmol ester hydrolyzed/min/mg protein.
In the case of `CCCC(=O)OCC(COC(=O)CCC)OC(=O)CCC` [Substrate 29], the “Specific activity, esterase E011” value is 450 mmol ester hydrolyzed/min/mg protein.
In the case of `CCCC(=O)OCC1CO1` (centres unmarked) [Substrate 30], the “Specific activity, esterase E011” value was 1.2 mmol ester hydrolyzed/min/mg protein.

The test system of another assay is ThermoGen esterases. Put plainly: Initial screening (pH indicator): esters as substrates of the ThermoGen esterases, statements for the esterases as a group. The class given is biochemical. Particulars: enantiomer pair library, Tables 8-12. The method, then: as §1
(§2) To survey the substrate selectivity of the ThermoGen esterases, the ability of the enzymes to hydrolyze thirty-one different commercially-available esters, Scheme 1 (FIG. 9, Table 6).
To evaluate the potential of the ThermoGen esterases for enantioselective reactions, the initial rates of hydrolysis of the esterases were measured using twenty-one pairs of enantiomers, Scheme 2, FIG. 10 and Tables 8-12. The ratio of these initial rates is an estimated enantioselectivity.
For `CCCC(=O)OCC1COC(C)(C)O1` (single isomer, unassigned) [Substrate 32], the “quality as substrate of the ThermoGen esterases (in words), enantiomer pairs” value (from here on “quality as substrate … enantiomer pairs”) is “best substrates”.
Consider `O=C(OCC1CO1)c1ccc([N+](=O)[O-])cc1` (single isomer, unassigned) [Substrate 33], for which the “quality as substrate … enantiomer pairs” value was “best substrates”.
For `CCCCCCCC(=O)OCC1COC(C)(C)O1` (single isomer, unassigned) [Substrate 35], the “quality as substrate … enantiomer pairs” value is given as “best substrates”.
As for `COC(=O)C(C)CO` (single isomer, unassigned) [Substrate 39], the “quality as substrate … enantiomer pairs” value is “poorest substrates”.
As for `COC(=O)CC(C)O` (single isomer, unassigned) [Substrate 40], the “quality as substrate … enantiomer pairs” value is on record as “poorest substrates”.
Still for that read-out and setting: the result for `COC(=O)C(O)c1ccccc1` (single isomer, unassigned) [Substrate 46] reads “poorest substrates”; that for `COC(=O)C(C)N` (single isomer, unassigned) [Substrate 47], “poorest substrates”.
Turning to `CCOC(=O)C1CCC(=O)N1` (single isomer, unassigned) [Substrate 48], the “quality as substrate … enantiomer pairs” value is listed as “poorest substrates”.
With `O=C1CCC(CO)O1` (single isomer, unassigned) [Substrate 51], the “quality as substrate … enantiomer pairs” value is “poorest substrates”.
The same measure, in the same setting: the same measure for `CC1(C)COC(=O)C1O` (single isomer, unassigned) [Substrate 52]: “poorest substrates”.

The assay is the same for the next values; noted with them: esters 1-31, initial screening.
Regarding `CC(C)(C)CC(=O)Oc1ccc2nc3ccc(=O)cc-3oc2c1` [Substrate 10, Resorufin t-butylacetate (resorufin 3,3-dimethylbutyrate), reference compound], the “quality as substrate of the ThermoGen esterases (in words)” value was “good substrate for several esterases”.
On to `C=COC(=O)C(C)(C)C` [Substrate 11], for which the “quality as substrate of the ThermoGen esterases (in words)” value was “poor substrate for all the esterases”.
As for `CCCC(=O)OCC` [Substrate 13], the “quality as substrate of the ThermoGen esterases (in words)” value was “reacted much slower”.

The same assay, now with this note: ratio of initial rates of enantiomer pairs.
For the compound `CC1(COC(=O)c2ccc([N+](=O)[O-])cc2)CO1` (single isomer, unassigned) [Substrate 34], the “estimated enantioselectivities with ThermoGen esterases (in words)” value (from here on “estimated enantioselectivities”) is listed as “estimated enantioselectivities above two with several esterases”.
For the compound `CCCC(=O)OC(C)c1ccccc1` (single isomer, unassigned) [Substrate 38], the “estimated enantioselectivities” value is “higher estimated enantioselectivities with most ThermoGen esterases”.
The same measure, in the same setting: the same measure for `COC(=O)C1COC(C)(C)O1` (single isomer, unassigned) [Substrate 43]: “estimated enantioselectivities above two with several esterases”; for `COC(=O)C(C)CBr` (single isomer, unassigned) [Substrate 44]: “estimated enantioselectivities above two with several esterases”; for `COC(=O)C(C)Cl` (single isomer, unassigned) [Substrate 45]: “higher estimated enantioselectivities with most ThermoGen esterases”.
For `COC(=O)C(C)N` (single isomer, unassigned) [Substrate 47], the “estimated enantioselectivities” value is “estimated enantioselectivities above two with several esterases”.
Turning to `COC(=O)C(N)Cc1c[nH]c2ccccc12` (single isomer, unassigned) [Substrate 50], the “estimated enantioselectivities” value is “estimated enantioselectivities above two with several esterases”.
On to `CC(=O)OC1CC(C)CCC1C(C)C` (centres unmarked) [Substrate 36], for which the “estimated enantioselectivities” value is recorded as “estimated enantioselectivities above two with several esterases”.

The subject of a further assay is esterase E016. Put plainly: Initial screening of ThermoGen esterases toward esters 1-31 (pH indicator), specific activity. The class given is biochemical. Conditions: 1 mM substrate, pH 7.2, 7 vol % acetonitrile, 25° C. The method, then: as §1, §2
On to `CC(C)(C)CC(=O)Oc1ccc2nc3ccc(=O)cc-3oc2c1` [Substrate 10, Resorufin t-butylacetate (resorufin 3,3-dimethylbutyrate), reference compound], for which the “Specific activity, esterase E016” value is 50 mmol ester hydrolyzed/min/mg protein.
On to `C=COC(=O)C(C)(C)C` [Substrate 11], for which the “Specific activity, esterase E016” value is given as 20 mmol ester hydrolyzed/min/mg protein.
Turning to `CCCC(=O)OCC` [Substrate 13], the “Specific activity, esterase E016” value is 3.5 mmol ester hydrolyzed/min/mg protein.
Turning to `CCCCOC(C)=O` [Substrate 25], the “Specific activity, esterase E016” value is on record as 13 mmol ester hydrolyzed/min/mg protein.
With `C=C(C)OC(C)=O` [Substrate 27], the “Specific activity, esterase E016” value is recorded as 49 mmol ester hydrolyzed/min/mg protein.
Turning to `CCC(C)OC(C)=O` (centres unmarked) [Substrate 28], the “Specific activity, esterase E016” value is listed as <2 mmol ester hydrolyzed/min/mg protein.
In the case of `CCCC(=O)OCC(COC(=O)CCC)OC(=O)CCC` [Substrate 29], the “Specific activity, esterase E016” value is reported as 130 mmol ester hydrolyzed/min/mg protein.
For the compound `CCCC(=O)OCC1CO1` (centres unmarked) [Substrate 30], the “Specific activity, esterase E016” value was 14 mmol ester hydrolyzed/min/mg protein.

The test system of another assay is esterase E015. The description is as above. The class given is biochemical. Particulars: 1 mM substrate, pH 7.2, 7 vol % acetonitrile, 25° C. How it is done: as §1, §2
On to `CC(C)(C)CC(=O)Oc1ccc2nc3ccc(=O)cc-3oc2c1` [Substrate 10, Resorufin t-butylacetate (resorufin 3,3-dimethylbutyrate), reference compound], for which the “Specific activity, esterase E015” value is on record as 5.9 mmol ester hydrolyzed/min/mg protein.
As to `C=COC(=O)C(C)(C)C` [Substrate 11], the “Specific activity, esterase E015” value is given as 4.0 mmol ester hydrolyzed/min/mg protein.
The same measure, in the same setting: the result for `CCCC(=O)OCC` [Substrate 13] reads 2.0 mmol ester hydrolyzed/min/mg protein; that for `CCCCOC(C)=O` [Substrate 25], 1.0 mmol ester hydrolyzed/min/mg protein; that for `C=C(C)OC(C)=O` [Substrate 27], 100 mmol ester hydrolyzed/min/mg protein.
As to `CCC(C)OC(C)=O` (centres unmarked) [Substrate 28], the “Specific activity, esterase E015” value was 0.29 mmol ester hydrolyzed/min/mg protein.
As for `CCCC(=O)OCC(COC(=O)CCC)OC(=O)CCC` [Substrate 29], the “Specific activity, esterase E015” value is reported as 550 mmol ester hydrolyzed/min/mg protein.
Still for that read-out and setting: the same measure for `CCCC(=O)OCC1CO1` (centres unmarked) [Substrate 30]: 3.2 mmol ester hydrolyzed/min/mg protein.

A further assay relates to esterase E006. The description is as above. The class given is biochemical. Conditions: 1 mM substrate, pH 7.2, 7 vol % acetonitrile, 25° C. The method, then: as §1, §2
`CC(C)(C)CC(=O)Oc1ccc2nc3ccc(=O)cc-3oc2c1` [Substrate 10, Resorufin t-butylacetate (resorufin 3,3-dimethylbutyrate), reference compound]: the “Specific activity, esterase E006” value was 5.7 mmol ester hydrolyzed/min/mg protein.
For the compound `C=COC(=O)C(C)(C)C` [Substrate 11], the “Specific activity, esterase E006” value is recorded as 0.52 mmol ester hydrolyzed/min/mg protein.
As to `CCCC(=O)OCC` [Substrate 13], the “Specific activity, esterase E006” value is 1.1 mmol ester hydrolyzed/min/mg protein.
On to `CCCCOC(C)=O` [Substrate 25], for which the “Specific activity, esterase E006” value is given as 0.54 mmol ester hydrolyzed/min/mg protein.
For the compound `C=C(C)OC(C)=O` [Substrate 27], the “Specific activity, esterase E006” value was 69 mmol ester hydrolyzed/min/mg protein.
Same read-out and setting: the same measure for `CCC(C)OC(C)=O` (centres unmarked) [Substrate 28]: 0.16 mmol ester hydrolyzed/min/mg protein.
For the compound `CCCC(=O)OCC(COC(=O)CCC)OC(=O)CCC` [Substrate 29], the “Specific activity, esterase E006” value was 370 mmol ester hydrolyzed/min/mg protein.
Same read-out and setting: the result for `CCCC(=O)OCC1CO1` (centres unmarked) [Substrate 30] reads 3.5 mmol ester hydrolyzed/min/mg protein.

The subject of the next assay is esterase E012. The description is as above. The class given is biochemical. Conditions: 1 mM substrate, pH 7.2, 7 vol % acetonitrile, 25° C. How it is done:
as §1, §2
On to `CC(C)(C)CC(=O)Oc1ccc2nc3ccc(=O)cc-3oc2c1` [Substrate 10, Resorufin t-butylacetate (resorufin 3,3-dimethylbutyrate), reference compound], for which the “Specific activity, esterase E012” value is 22 mmol ester hydrolyzed/min/mg protein.
In the case of `C=COC(=O)C(C)(C)C` [Substrate 11], the “Specific activity, esterase E012” value is on record as 16 mmol ester hydrolyzed/min/mg protein.
As for `CCCC(=O)OCC` [Substrate 13], the “Specific activity, esterase E012” value was <2 mmol ester hydrolyzed/min/mg protein.
As to `CCCCOC(C)=O` [Substrate 25], the “Specific activity, esterase E012” value is on record as <2 mmol ester hydrolyzed/min/mg protein.
Consider `C=C(C)OC(C)=O` [Substrate 27], for which the “Specific activity, esterase E012” value was 2.4 mmol ester hydrolyzed/min/mg protein.
Same read-out and setting: the result for `CCC(C)OC(C)=O` (centres unmarked) [Substrate 28] reads <2 mmol ester hydrolyzed/min/mg protein; that for `CCCC(=O)OCC(COC(=O)CCC)OC(=O)CCC` [Substrate 29], 37 mmol ester hydrolyzed/min/mg protein; that for `CCCC(=O)OCC1CO1` (centres unmarked) [Substrate 30], 3.4 mmol ester hydrolyzed/min/mg protein.

The next assay deals with esterase E020. The assay is described as above. The class given is biochemical. Conditions: 1 mM substrate, pH 7.2, 7 vol % acetonitrile, 25° C. The method, then: as §1, §2
Turning to `CC(C)(C)CC(=O)Oc1ccc2nc3ccc(=O)cc-3oc2c1` [Substrate 10, Resorufin t-butylacetate (resorufin 3,3-dimethylbutyrate), reference compound], the “Specific activity, esterase E020” value is reported as 14 mmol ester hydrolyzed/min/mg protein.
As to `C=COC(=O)C(C)(C)C` [Substrate 11], the “Specific activity, esterase E020” value is recorded as 1.2 mmol ester hydrolyzed/min/mg protein.
On the same count and under the same terms, the result for `CCCC(=O)OCC` [Substrate 13] reads 3.0 mmol ester hydrolyzed/min/mg protein; that for `CCCCOC(C)=O` [Substrate 25], 2.0 mmol ester hydrolyzed/min/mg protein; that for `C=C(C)OC(C)=O` [Substrate 27], 3.3 mmol ester hydrolyzed/min/mg protein.
Take `CCC(C)OC(C)=O` (centres unmarked) [Substrate 28]: the “Specific activity, esterase E020” value was 2.1 mmol ester hydrolyzed/min/mg protein.
`CCCC(=O)OCC(COC(=O)CCC)OC(=O)CCC` [Substrate 29]: the “Specific activity, esterase E020” value is given as 560 mmol ester hydrolyzed/min/mg protein.
On the same count and under the same terms, the result for `CCCC(=O)OCC1CO1` (centres unmarked) [Substrate 30] reads 2.0 mmol ester hydrolyzed/min/mg protein.

In the next assay the test system is esterase E014. Described as above. The class given is biochemical. Particulars: 1 mM substrate, pH 7.2, 7 vol % acetonitrile, 25° C. The method, then:
as §1, §2
Take `CC(C)(C)CC(=O)Oc1ccc2nc3ccc(=O)cc-3oc2c1` [Substrate 10, Resorufin t-butylacetate (resorufin 3,3-dimethylbutyrate), reference compound]: the “Specific activity, esterase E014” value was 1.0 mmol ester hydrolyzed/min/mg protein.
The same measure, in the same setting: the result for `C=COC(=O)C(C)(C)C` [Substrate 11] reads 0.40 mmol ester hydrolyzed/min/mg protein.
On to `CCCC(=O)OCC` [Substrate 13], for which the “Specific activity, esterase E014” value was 0.40 mmol ester hydrolyzed/min/mg protein.
Same read-out and setting: the same measure for `CCCCOC(C)=O` [Substrate 25]: 0.21 mmol ester hydrolyzed/min/mg protein.
With `C=C(C)OC(C)=O` [Substrate 27], the “Specific activity, esterase E014” value is recorded as 0.73 mmol ester hydrolyzed/min/mg protein.
On the same count and under the same terms, the same measure for `CCC(C)OC(C)=O` (centres unmarked) [Substrate 28]: <0.1 mmol ester hydrolyzed/min/mg protein; for `CCCC(=O)OCC(COC(=O)CCC)OC(=O)CCC` [Substrate 29]: 280 mmol ester hydrolyzed/min/mg protein; for `CCCC(=O)OCC1CO1` (centres unmarked) [Substrate 30]: 0.53 mmol ester hydrolyzed/min/mg protein.
